Test results: PubChem BioAssay (NCI)
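Compound exposure: 48 hours, 5 concentrations, 96-well plates. At the GI50, growth is halved. TGI marks complete inhibition of growth.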

Tests used:
Test in all cases: growth of human tumour cells (NCI), 48 h
786-0 renal = tested on: 786-0 renal
A498 renal = tested on: A498 renal
A549 NSCLC = tested on: A549 NSCLC
ACHN renal = tested on: ACHN renal
BT-549 breast = tested on: BT-549 breast
CAKI-1 renal = tested on: CAKI-1 renal
CCRF-CEM leukemia = tested on: CCRF-CEM leukemia
COLO 205 colon = tested on: COLO 205 colon
DU-145 prostate = tested on: DU-145 prostate
HCC-2998 colon = tested on: HCC-2998 colon
HCT-116 colon = tested on: HCT-116 colon
HCT-15 colon = tested on: HCT-15 colon
HL-60(TB) leukemia = tested on: HL-60(TB) leukemia
HOP-62 NSCLC = tested on: HOP-62 NSCLC
HOP-92 NSCLC = tested on: HOP-92 NSCLC
HS 578T breast = tested on: HS 578T breast
HT29 colon = tested on: HT29 colon
IGROV1 ovarian = tested on: IGROV1 ovarian
K-562 leukemia = tested on: K-562 leukemia
KM12 colon = tested on: KM12 colon
LOX IMVI melanoma = tested on: LOX IMVI melanoma
M14 melanoma = tested on: M14 melanoma
MALME-3M melanoma = tested on: MALME-3M melanoma
MCF7 breast = tested on: MCF7 breast
MDA-MB-231 breast = tested on: MDA-MB-231 breast
MDA-MB-435 = tested on: MDA-MB-435
MOLT-4 leukemia = tested on: MOLT-4 leukemia
NCI-H226 lung = tested on: NCI-H226 lung
NCI-H23 lung = tested on: NCI-H23 lung
NCI-H460 lung = tested on: NCI-H460 lung
NCI-H522 lung = tested on: NCI-H522 lung
NCI/ADR-RES ovarian = tested on: NCI/ADR-RES ovarian
OVCAR-3 ovarian = tested on: OVCAR-3 ovarian
OVCAR-4 ovarian = tested on: OVCAR-4 ovarian
OVCAR-5 ovarian = tested on: OVCAR-5 ovarian
OVCAR-8 ovarian = tested on: OVCAR-8 ovarian
PC-3 prostate = tested on: PC-3 prostate
RPMI-8226 leukemia = tested on: RPMI-8226 leukemia
RXF 393 renal = tested on: RXF 393 renal
SF-268 CNS = tested on: SF-268 CNS
SF-295 CNS = tested on: SF-295 CNS
SF-539 CNS = tested on: SF-539 CNS
SK-MEL-2 melanoma = tested on: SK-MEL-2 melanoma
SK-MEL-28 melanoma = tested on: SK-MEL-28 melanoma
SK-MEL-5 melanoma = tested on: SK-MEL-5 melanoma
SK-OV-3 ovarian = tested on: SK-OV-3 ovarian
SN12C renal = tested on: SN12C renal
SNB-19 CNS = tested on: SNB-19 CNS
SNB-75 CNS = tested on: SNB-75 CNS
SR leukemia = tested on: SR leukemia
SW-620 colon = tested on: SW-620 colon
T-47D breast = tested on: T-47D breast
U251 CNS = tested on: U251 CNS
UACC-257 melanoma = tested on: UACC-257 melanoma
UACC-62 melanoma = tested on: UACC-62 melanoma
UO-31 renal = tested on: UO-31 renal

With `O=C1Nc2ccccc2/C1=C/C(=N/c1nnc(-c2ccccc2)s1)c1ccccc1` the GI50 (786-0 renal) was 1.79 µM, the TGI (786-0 renal) was 3.55 µM and the GI50 (A498 renal) was 6.78 µM. It also gave a TGI (A498 renal) of 21 µM, a GI50 (A549 NSCLC) of 8.62 µM and a TGI (A549 NSCLC) of 23.6 µM. It also gave a GI50 (ACHN renal) of 1.56 µM, a TGI (ACHN renal) of 3 µM and a GI50 (BT-549 breast) of 1.91 µM. For the same molecule, the TGI (BT-549 breast) was 3.96 µM, the GI50 (CAKI-1 renal) was 2.58 µM and the TGI (CAKI-1 renal) was 10.3 µM. The GI50 (CCRF-CEM leukemia) was 1.47 µM, the TGI (CCRF-CEM leukemia) was 4.72 µM and the GI50 (COLO 205 colon) was 1.68 µM. For the same molecule, the TGI (COLO 205 colon) was 3.22 µM, the GI50 (DU-145 prostate) was 2.7 µM and the TGI (DU-145 prostate) was 7.77 µM. The GI50 (HCC-2998 colon) was 8.58 µM, the TGI (HCC-2998 colon) was 21.5 µM and the GI50 (HCT-116 colon) was 1.34 µM. It also gave a TGI (HCT-116 colon) of 2.92 µM, a GI50 (HCT-15 colon) of 1.63 µM and a TGI (HCT-15 colon) of 4.01 µM. The GI50 (HL-60(TB) leukemia) was 1.82 µM, the TGI (HL-60(TB) leukemia) was 5.33 µM and the GI50 (HOP-62 NSCLC) was 6.05 µM. The TGI (HOP-62 NSCLC) was 18 µM, the GI50 (HOP-92 NSCLC) was 0.987 µM and the TGI (HOP-92 NSCLC) was 2.93 µM. The GI50 (HS 578T breast) was 2.71 µM, the TGI (HS 578T breast) was 11.8 µM and the GI50 (HT29 colon) was 2.1 µM. It also gave a TGI (HT29 colon) of 5.37 µM, a GI50 (IGROV1 ovarian) of 2.13 µM and a TGI (IGROV1 ovarian) of 5.94 µM. The GI50 (K-562 leukemia) was 1.69 µM, the TGI (K-562 leukemia) was 11 µM and the GI50 (KM12 colon) was 5.5 µM. The TGI (KM12 colon) was 17.9 µM, the GI50 (LOX IMVI melanoma) was 1.61 µM and the TGI (LOX IMVI melanoma) was 3.21 µM. For the same molecule, the GI50 (M14 melanoma) was 3.87 µM, the TGI (M14 melanoma) was 14.3 µM and the GI50 (MALME-3M melanoma) was 2.17 µM. It also gave a TGI (MALME-3M melanoma) of 6.67 µM, a GI50 (MCF7 breast) of 2.28 µM and a TGI (MCF7 breast) of 11.3 µM. It also gave a GI50 (MDA-MB-231 breast) of 1.92 µM, a TGI (MDA-MB-231 breast) of 4.95 µM and a GI50 (MDA-MB-435) of 2.96 µM. It also gave a TGI (MDA-MB-435) of 9.32 µM, a GI50 (MOLT-4 leukemia) of 2.23 µM and a TGI (MOLT-4 leukemia) of 6.54 µM. For the same molecule, the GI50 (NCI-H226 lung) was 2.5 µM, the TGI (NCI-H226 lung) was 8.28 µM and the GI50 (NCI-H23 lung) was 2.88 µM. The TGI (NCI-H23 lung) was 11 µM, the GI50 (NCI-H460 lung) was 7.04 µM and the TGI (NCI-H460 lung) was 21.9 µM. The GI50 (NCI-H522 lung) was 0.449 µM, the TGI (NCI-H522 lung) was 1.06 µM and the GI50 (NCI/ADR-RES ovarian) was 3.1 µM. For the same molecule, the TGI (NCI/ADR-RES ovarian) was 10.3 µM, the GI50 (OVCAR-3 ovarian) was 1.38 µM and the TGI (OVCAR-3 ovarian) was 2.8 µM. For the same molecule, the GI50 (OVCAR-4 ovarian) was 2.63 µM, the TGI (OVCAR-4 ovarian) was 12.2 µM and the GI50 (OVCAR-5 ovarian) was 2.09 µM. It also gave a TGI (OVCAR-5 ovarian) of 6.63 µM, a GI50 (OVCAR-8 ovarian) of 2.77 µM and a TGI (OVCAR-8 ovarian) of 9.35 µM. It also gave a GI50 (PC-3 prostate) of 2 µM, a TGI (PC-3 prostate) of 5.52 µM and a GI50 (RPMI-8226 leukemia) of 2.14 µM. For the same molecule, the TGI (RPMI-8226 leukemia) was 5.21 µM, the GI50 (RXF 393 renal) was 1.51 µM and the TGI (RXF 393 renal) was 3.1 µM. It also gave a GI50 (SF-268 CNS) of 4.3 µM, a TGI (SF-268 CNS) of 16.1 µM and a GI50 (SF-295 CNS) of 17.1 µM. It also gave a TGI (SF-295 CNS) of 32.7 µM, a GI50 (SF-539 CNS) of 1.99 µM and a TGI (SF-539 CNS) of 4.64 µM. It also gave a GI50 (SK-MEL-2 melanoma) of 2.55 µM, a TGI (SK-MEL-2 melanoma) of 7.07 µM and a GI50 (SK-MEL-28 melanoma) of 2.68 µM. The TGI (SK-MEL-28 melanoma) was 6.93 µM, the GI50 (SK-MEL-5 melanoma) was 6.57 µM and the TGI (SK-MEL-5 melanoma) was 17.9 µM. It also gave a GI50 (SK-OV-3 ovarian) of 6.62 µM, a TGI (SK-OV-3 ovarian) of 19.1 µM and a GI50 (SN12C renal) of 2.07 µM. For the same molecule, the TGI (SN12C renal) was 5.69 µM, the GI50 (SNB-19 CNS) was 12.3 µM and the TGI (SNB-19 CNS) was 25 µM. The GI50 (SNB-75 CNS) was 3.7 µM, the TGI (SNB-75 CNS) was 16.9 µM and the GI50 (SR leukemia) was 0.957 µM. The TGI (SR leukemia) was 6.76 µM, the GI50 (SW-620 colon) was 1.2 µM and the TGI (SW-620 colon) was 2.74 µM. It also gave a GI50 (T-47D breast) of 2.45 µM, a TGI (T-47D breast) of 10.1 µM and a GI50 (U251 CNS) of 4.91 µM. It also gave a TGI (U251 CNS) of 17.7 µM, a GI50 (UACC-257 melanoma) of 3.81 µM and a TGI (UACC-257 melanoma) of 10.6 µM. It also gave a GI50 (UACC-62 melanoma) of 1.72 µM, a TGI (UACC-62 melanoma) of 3.74 µM and a GI50 (UO-31 renal) of 1.45 µM. It also gave a TGI (UO-31 renal) of 3.31 µM.
